Source: patent US4900744A, “Antihypercholesterolemic 4,5-diaryl-2-substituted thioimidazoles” (E. I. Du Pont de Nemours and Company, priority 1988, dated 1990)

Experiments:
[1] = system: J774 cells; assay: Inhibition of Cholesterol Esterification in Mammalian Cells (macrophage-like cell line J774); type: cell-based; details: Mus musculus; murine macrophage-like cell line J774, +LDL (200 μg/ml), 14C-oleic acid incorporation into cholesteryl ester
Protocol: The esterification of cholesterol was determined in the murine macrophage-like cell line J774. J774 cells were placed in 60 mm dishes at a density of 200,000 cells per dish in 3.0 ml of Dulbecco's minimal essential medium (DMEM) containing 10% Fetal bovine serum. Cells were incubated at 37° C. in an atmosphere of 5% CO2 and 93% humidity. After 24 hr, the cells were washed with 2 ml of Hanks buffered saline and the media changed to 1.5 ml of DMEM containing 1% Cabosil® treated serum (CTS) to up-regulate LDL receptors. At 56 hr, fresh media that contained 1% CTS was added to the cells; in all but control dishes the media contained 200 μg LDL/ml to increase the intracellular concentration of cholesterol and promote esterification. At 72 hr, various inhibitors were added to the cells in DMSO (10 μl/ml maximum). At 74 hr, the cells were pulsed with 0.1 mM ^14 C-oleic acid (20,000 dpm/nmol) complexed with bovine serum albumin (BSA) to follow cholesteryl ester formation. The experiment was terminated at 76 hrs by washing the monolayers 3 times with 3 ml of Tris-buffered saline at 4° C. The lipids were extracted by incubating the monolayers with 1.5 ml of hexane: isopropanol (3:2, v/v) for 30 mins under gentle agitation. During this period, 20,000 dpm ^3 H-cholesteryl linoleate and 10 μg of cholesteryl oleate were added as an internal standard and carrier respectively. The organic solvent was removed and the cells were washed with an additional 1.0 ml of hexane: isopropanol which was combined with the original extract. The cells were allowed to dry overnight, digested with 1.5 ml of 0.2 N sodium hydroxide for 1 hr, and an aliquot of the solubilized protein used for protein determination using the Lowry method. The organic extract was taken to dryness, the residue resuspended in 100 μl of chloroform and the lipids separated on silica gel impregnated glass fiber plates using a hexane: diethyl ether: acetic acid (170:30:1, v/v/v) solvent system. The cholesteryl ester spot was visualized with iodine, cut out, and transferred to scintillation vials to determine the amount of radioactivity. The conversion of oleic acid to cholesteryl ester in the control averaged 0.54 nmol/hr/mg protein and was increased upon the addition of LDL to about 2.37 nmol/hr/mg protein. Inhibition of esterification by various compound was determined by dividing the specific activity (+LDL) in the presence of the inhibitor by the specific activity (+LDL) of the vehicle alone times 100% -100.

[2] = molecular target: acyl-CoA:cholesterol acyltransferase (ACAT); assay: Inhibition of Acyl CoA:Cholesterol Acyltransferase (ACAT) in Hepatic Microsomes; type: biochemical, rat (male Sprague Dawley); details: rat hepatic microsomes, 75 μM 14C-oleoyl-CoA, pH 7.4, 37° C., 15 min preincubation, 10 min assay; read-out: IC50 In Vitro ACAT
Protocol: The ability of the compounds of this invention to inhibit ACAT, the enzyme responsible for the intracellular synthesis of cholesteryl esters, was tested as follows. Male Sprague Dawley rats weighing 150-300 g were fed rat chow ad libitum. The animals were fasted for twenty-four hours prior to being sacrificed by decapitation. The livers were perfused in situ with 50 ml of cold 0.25 M sucrose, excised, and homogenized in three volumes of 0.1 M phosphate buffer, pH 7.4 containing 0.5 mM EDTA (ethylenediaminetetraacetic acid), 1.0 mM glutathione, 0.25 M sucrose and 20 μM leupeptin. Microsomes were obtained by differential centrifugation; the supernatant from an initial spin at 15,000×g. for 15 minutes (which removed cell debris and mitochondria) was centrifuged at 105,000×g. for 1 hr to pellet the microsomes. The microsomes were suspended in homogenization buffer reisolated by centrifugation and stored at -70° C. Microsomes were used within one month of preparation.
The control assay in a final volume of 200 μl consisted of 200 μg of microsomal protein, 75 μM ^14 C-oleoyl-CoA (10,000 dpm/nmol) in 0.1 M phosphate, pH 7.4 containing 1 mM glutathione. Compounds were added in 5-10 μl of DMSO (dimethyl sulfoxide) and additional controls were run with DMSO only. All components, except the radiolabeled oleoyl-CoA, were preincubated for 15 min at 37° C. prior to the initiation of the reaction by addition of radiolabeled oleoyl-CoA. The assay was terminated after 10 min by the addition of 500 μl of hexane: isopropanol (3:2, v/v). 20,000 dpm of ^3 H-cholesteryl oleate and 10 μg of unlabeled cholesteryl oleate and oleic acid were added as an internal standard and carriers, respectively. After allowing 10 min for lipid extraction, the samples were centrifuged at 1,000×g for 10 mins to separate the solvent layers. 200 μl of the top (hexane) layer containing the neutral lipids was spotted onto a Baker SI250-Pa silica gel TLC plate and the plate developed using a hexane: diethyl ether: acetic acid (170:30:1 v/v/v) mobile phase. The lipids were visualized by their interaction with iodine vapor and the cholesteryl ester spot was scraped into a scintillation vial and the radioactivity on the gel was determined by standard liquid scintillation spectrometry. The specific activity of ACAT in control microsomes averaged 260 pmol/min/mg microsomal protein. The % inhibition of the various compounds was the ACAT activity in the presence of the inhibitor divided by the activity of the control (vehicle alone) times 100%-100.

IC50 [1] | IC50 [2] | SMILES
78 µM | 23 µM | O=C(O)CCCCCCCOc1nc(-c2ccccc2)c(-c2ccccc2)n1-c1ccccc1 [Octimibate, reference compound]
17 µM | 1 µM | O=C(O)CCCCCCCCCCSc1nc(-c2ccccc2)c(-c2ccccc2)[nH]1 [Example 58, 11-(4,5-Diphenyl-1H-imidazol-2-ylthio)undecanoic acid]

Further lines, the compound ahead of its results:

SMILES | IC50 [1] | IC50 [2]
O=C(O)CCCCCCCSc1nc(-c2ccccc2)c(-c2ccccc2)[nH]1 [Example 57, 8-(4,5-Diphenyl-1H-imidazol-2-ylthio)octanoic acid] | 80 µM | 2 µM
CCOC(=O)CCCCCCCSc1nc(-c2ccccc2)c(-c2ccccc2)[nH]1 [Example 1, 8-(4,5-Diphenyl-1H-imidazol-2-ylthio)octanoic acid ethyl ester] | 19 µM | 2 µM
CCOC(=O)CCCCCCCCCCSc1nc(-c2ccccc2)c(-c2ccccc2)[nH]1 [Example 2, 11-(4,5-Diphenyl-1H-imidazol-2-ylthio)undecanoic acid ethyl ester] | 17 µM | 1 µM
